Measurements as given in patent US20210213120A1, “KRAS PEPTIDE VACCINE COMPOSITIONS AND METHOD OF USE” (THE MEDICAL COLLEGE OF WISCONSIN , INC., priority 2017, published 2021).
No end group written: not given here.

Key:
[1] = system: IFN-γ-secreting splenocytes; assay: IFN-γ ELISPOT of splenocytes from vaccinated CCSP-KRAS^G12D mice at end of study (epitope spreading); type: in vivo, mouse; details: for mean IFN-γ-secreting cell responses: splenocytes of mice vaccinated with KRAS combination vaccine, pulsed with the named peptide(s) 72 h
Experimental: FIG. 3. Epitope spreading tested by IFN-γ ELISPOT. Mice were vaccinated with the KRAS combination vaccine (p5-21, p5-21 G12D, p17-31, and p78-92). Then splenocytes were collected and pulsed with KRAS combo peptides, each single KRAS peptide, unvaccinated KRAS peptide p75-89, combo IGFR peptides, or Tert peptide. After 72 h of incubation, the ELISPOT assay was performed, plates were scanned, and spot numbers were statistically analyzed.
(§1) Cell suspensions from whole spleens were filtered through a 70 μm cell strainer (BD) and subjected to red blood cell lysis using ACK lysis buffer. 1.5˜3.0×10^4 cells were plated into individual wells of a MAIPS4510 Multiscreen 96 well plate previously coated with anti-interferon γ […] antibody and containing media with either peptide, positive control (concanavalin A) or negative control (HIV peptide, or no antigen). After 72 hours, plates were washed and a secondary antibody (BD) was added and incubated on the plate overnight at 4 degrees Celsius. Wells were then washed with PBS and HRP streptavidin was added. Following 1 h incubation, the plate was developed using AEC substrate for between 5-25 minutes. The plate was subsequently gently washed under cold running tap water. When dry, an automated plate reader system (CTL Technologies) was used to image the plates and quantify spot number.
In order to examine the specific immunity that confers the protective effect of the KRAS vaccine, an IFN-γELISPOT assay of splenocytes isolated from adjuvant alone and vaccinated CCSP-KRAS^G12D mice was performed at the end of the study. […] The mean IFN-γ-secreting cell responses were 216 in the pooled KRAS peptides group, and 36, 40, 116, and 52 to individual peptides p5-21, p5-21 G12D, p17-31, and p78-92, respectively. […] There was no evidence of general immune hyperactivity stimulation as none of the animals responded to an irrelevant naïve antigen, further supporting the notion that the immune response detected in the vaccinated group was highly specific to the KRAS vaccine.

[2] = system: IFN-γ-secreting splenocytes; assay: IFN-γ ELISPOT screen of single KRAS peptides in naïve mice; type: in vivo, mouse; details: for IFN-γ response (ELISPOT): naïve mice vaccinated with single KRAS peptide; for IFN-γ response (ELISPOT) / mean IFN-γ-secreting cells: splenocytes pulsed 72 h
Text: FIG. 1A-1C. In vivo screen for peptide candidates by ELISPOT in naïve mice. (A) Immunogenic heatmap for identifying peptides associated with highest binding affinity across multiple MHC class II alleles. Colors represent percentile to highest score from three algorithms for each amino acid from dark red to light blue in the order of rank scores. Color strata are as follows: dark red ≥75% of the highest score; red=50˜75% of the highest score; orange=40˜50% of highest score; yellow=30˜40% of the highest score; green=20˜30% of the highest score; blue ≤20% of the highest score. (B) Representative ELISPOT results showing T cell responses to specific KRAS peptides from mouse splenocytes stimulated with no antigen (first row), negative control peptide (HIV peptide, second row), target peptide (third row), or positive control ConA (fourth row). (C) Quantified ELISPOT results. Then, splenocytes were collected and pulsed with no antigen control, each single KRAS peptide, or negative control peptide (HIV peptide), or positive control ConA. After 72 h of incubation, the ELISPOT assay was performed, plates were scanned, and spot numbers were statistically analyzed. Open bar, ELISPOT reads from KRAS peptide vaccinated animals pulsed with specific KRAS peptide; blue bar, ELISPOT reads from animals injected only with adjuvant and pulsed with specific KRAS peptide; black bar, ELISPOT reads from three most significant KRAS peptide vaccinated animals. Data are shown as the mean±SE of three replicate wells per group, n=5.
Mice were vaccinated with 50 μg of each peptide. Phosphate buffered saline (PBS) was added to bring the total volume to 50 μL/mouse. An equal amount of adjuvant (Complete Freund's Adjuvant or Incomplete Freund's Adjuvant) was added to bring the total volume to 100 μL/mouse. Mice were injected subcutaneously on the shoulder at 7 weeks of age, and boosting vaccination was given every two weeks for the first three boosting and every 4 weeks for the last three boosting as shown in FIG. 2A. Transgene Kras was initiated with Dox diet (625 mg/kg diet) one week after the fourth vaccination, and Dox diet was given throughout of the study.
as §1
Using a multi-scoring system that combines multiple MHC class II peptide binding algorithms, immunogenic “hotspots” were identified; 11 peptides (Table 2) were selected; their immunogenicity was evaluated in naïve mice using the IFN-γ ELISPOT assay as previously reported. The KRAS 17-mer peptide (p5-21) that covers the mutation in codon 12, and its G12D mutant (p5-21 G12D) were also selected as robust peptides to stimulate immune response. […] To include peptides against both wild-type and mutant KRAS, also based on a high degree of homology between human and mouse KRAS, peptides p5-21 (SEQ ID NO:2), p5-21 G12D (SEQ ID NO:1), p17-31 (SEQ ID NO:4), and p78-92 (SEQ ID NO:6) were chosen to formulate a multipeptide KRAS vaccine in the preventive efficacy study.

[3] = system: tumor infiltrated CD8+ cells and Tregs; assay: T cells in spleen or tumor of K-rasLA1 mice; type: in vivo, mouse; details: 4~5 weeks after treatment
Experimental: FIG. 8. UAB30 increased tumor infiltrated CD8+ cells and decreased Tregs in tumor. K-rasLA1 mice were treated with control, Kras-vaccine, UAB30 alone or Kras-vaccine and UAB30 and the % CD4+ or CD8+ T cells were assessed in the spleen or tumor of mice at 4˜5 weeks after treatment.
K-rasLA1 mouse develops premalignant lung lesions that progress to multifocal lung adenocarcinomas due to somatic mutations in K-ras, which occurs at the birth of these mice through DNA recombination. […] In this model, vaccination was given when mice were 8˜10 weeks old, at which numerous pleural lesions already formed in lung, yet K-ras vaccination alone significant inhibited lung tumor multiplicity and load in K-rasLA1 mice, decreased tumor numbers from ˜12 to ˜7 per mouse, and tumor load from ˜55 mm3 to ˜30 mm3 (FIG. 7).

[4] = Immune response to KRAS peptides (Table 1)
IFN-γ response = assay: IFN-γ ELISPOT of PD-1 and PD-L1 peptides in naïve mice; type: in vivo, mouse
Experimental: The immunogenicity of PD-1 and PD-L1 were tested in naïve mice using the IFN-γ ELISPOT assay. (P<0.0001, data not shown)
Cancer cells are naturally attacked by cells of the immune system, but can induce a state of tolerance whereby they escape from immune attack, for which immune checkpoint proteins such as PD1, VISTA are important ones mediating this immune escape. Interaction of PD-1 on activated T cells and PD-L1 on cancer cells lead to inhibition of the cytotoxic T cells. Investigators have recently identified spontaneous T cell reactivity against PD-L1 in the tumor microenvironment and in the peripheral blood of patients with metastatic melanoma and healthy donors, PD-L1 reactive CD8 T cells are cytotoxic and can kill cancer cells and immune regulatory cells in vitro, and responsive PD-L1 peptide vaccine has therefore under development. Here, by using a multi-scoring system that combines multiple MHC class II peptide binding algorithms, we identified immunogenic “hotspots”, and selected 7 peptides for PD-L1 and 11 peptides for PD-1 from these immunogenic “hot” regions (see Table 3). We then tested their immunogenicity in naïve mice using the IFN-γ ELISPOT assay.

[5] = system: K-ras-driven lung cancer syngraft; assay: K-ras-driven lung cancer syngraft tumor model (avasimibe combination); type: in vivo, mouse; details: tumor volume over time
Experimental: FIG. 10. K-ras vaccine synergize with Avasamibe to inhibit lung tumor progression in K-ras-driven lung cancer syngraft tumor model.
Mice were treated with the combination of K-ras multi-peptide vaccine with avasimibe in a K-ras-driven lung cancer syngraft model. Tumor volume was assessed over time post tumor cell inoculation.
Therefore, we tested the combination of K-ras multi-peptide vaccine with avasimibe in a K-ras-driven lung cancer syngraft model.

GEGFLCVFAINNTKS [p75-89]
IFN-γ response to non-vaccine KRAS peptide ([1]; splenocytes of vaccinated animals): strong response | IFN-γ response (ELISPOT) [2]: much weaker response

CC(=C/C=C/C(C)=C/C(=O)O)/C=C1\CCCc2ccccc21 [UAB30]
Tregs in tumors [3]: decreased | infiltrated CD8+ cells in tumors [3]: significantly increased

TgegFLCVFAINNTKSFED (TGEGFLCVFAINNTKSFED) [P75]
Immune response [4]: Yes

SALTIQLIQNHFVDE [p17-31]
Immune response [4]: Yes | mean IFN-γ-secreting cell responses [1]: 116 | IFN-γ response (ELISPOT) [2]: strongest IFN-γ response

PQHSNFRGRASLPKD [mPDL1-76]
IFN-γ response, peptides against PD-L1 (IFN-γ response): strongest IFN-γ response

AGGVGKSALTIQLLQNHFVDEYD [p11]
Immune response [4]: Yes

SWQSGWLLEVPNGPW [mPD1-21]
IFN-γ response, peptides for PD-1 (IFN-γ response): strongest IFN-γ response

LAVFCSTSMSEARGA [mPD1-193]
IFN-γ response, peptides for PD-1 (IFN-γ response): strongest IFN-γ response

DAFYTLVREIRKHKE [p154-168]
IFN-γ response (ELISPOT) [2]: much weaker response

CHLLRAFTITAPKDL [mPDL1-13]
IFN-γ response, peptides against PD-L1 (IFN-γ response): strongest IFN-γ response

AGGVGKSALTIQLLQNHFVDE [p11s]
Immune response [4]: Yes

LPATHPPQNRTHWVL [mPDL1228]
IFN-γ response, peptides against PD-L1 (IFN-γ response): strongest IFN-γ response | IFN-γ response, peptides for PD-1 (IFN-γ response): strongest IFN-γ response

kSALTIQLIQNHFVDEyd (KSALTIQLIQNHFVDEYD; not fully specified (residues 1, 17, 18); printed as kSALTIQLIQNHFVDEyd) [P16]
Immune response [4]: Yes

KLVVVGADGVGKSALTI [p5-21 G12D]
Immune response [4]: Yes | mean IFN-γ-secreting cell responses [1]: 40 | mean IFN-γ-secreting cells ([2]; naïve mice): around 100 spots per well (SPW)

CC(C)c1cc(C(C)C)c(CC(=O)NS(=O)(=O)Oc2c(C(C)C)cccc2C(C)C)c(C(C)C)c1 [avasimibe]
tumor growth inhibition [5]: effective in inhibiting tumor growth

KLVVVGAVGVGKSALTI [P5-21G12V]
Immune response [4]: Yes

QDARFQIIQLPNRHD [mPD1-94]
IFN-γ response, peptides for PD-1 (IFN-γ response): strongest IFN-γ response

VGAGGVGKSALTIQLLQNHFVDEYD [p9]
Immune response [4]: Yes

KLVVVGAGGVGKSAL [p5-19]
response relative to p5-21 ([2]; IFN-γ ELISPOT, naïve mice): less than 50%

FYTLVREIRKHKEKM [p156-170]
Immune response [4]: Yes | IFN-γ response (ELISPOT) [2]: strongest IFN-γ response

FLCVFAINNTKSFED [p78-92]
Immune response [4]: Yes | mean IFN-γ-secreting cell responses [1]: 52 | IFN-γ response (ELISPOT) [2]: strongest IFN-γ response

KLVVVGAGGVGKSALTI [p5-21]
Immune response [4]: Yes | mean IFN-γ-secreting cell responses [1]: 36 | IFN-γ response (ELISPOT) [2]: strongest IFN-γ response | mean IFN-γ-secreting cells ([2]; naïve mice): around 100 spots per well (SPW)
